Reference: patent publication US5679828A (priority 1995, dated 1997)
Read-outs that look alike come from different tables or passages of the source.

Tests used:
[1] = system: cells of the fusion assay; assay: Cytotoxicity noted in the fusion assay; format: cell-based; details: Table 1 footnotes; one-day fusion assay
Procedure: (§1) Cell fusions were performed as described in Matthews et al., Proc. Natl. Acad. Sci. USA, 1987, 84, 5424-5428. MOLT-4 cells (7×10^4) were incubated with HIV-1LAI chronically infected CEM cells (10^4) in 96-well half-area flat-bottomed plates (Costar) in 100 microliters culture medium were incubated with the cell mixtures at 37° C. for 24 hours. Multinucleated syncytia were enumerated by microscopic examination of the entire contents of each well.
^d No noticeable cytotoxicity at 100 μg/mL
^e Toxic to the cells at 80 μg/mL in oneday fusion assay
^f Toxic at 40 μg/mL under the assay conditions

[2] = system: HIV-1; assay: HIV-1 replication in acutely infected H9 lymphocytes (p24 antigen ELISA); format: cell-based, HIV-1 (IIIB isolate); design: TI50: unit not given beside the values
Procedure: The cell lines were used in experiments only when in the logarithmic phase of growth, whereas uninfected peripheral blood mononuclear cells (PBMCs) were first stimulated with PHA (1 μg/mL) for three days. […] The cell lines and PBMCs were washed thoroughly to remove unadsorbed virions and resuspended at 4×10^5 cells/ml in complete medium or complete medium with 10% v/v interleukin 2 (IL-2), respectively. One ml. aliquots were placed into wells of 24-well culture plates containing an equal volume of test compounds (diluted in the appropriate culture medium). The toxicity of each compound was assessed by determining the number of compound-exposed uninfected cells that remained after four days at 37° C. and 5% CO2. A p24 antigen ELISA assay was used to determine the level of virus released in the medium of the HIV-infected cultures. The p24 antigen assay used a HIV-1 anti-p24 specific monoclonal antibody as the capture antibody coated onto 96-well plates. […] P24 in the culture medium was quantitated against a standard curve containing known amounts of p24. The effective (EC50) and inhibitory (IC50) concentrations for anti-HIV activity and cytotoxicity, respectively, were determined.
^a Concentration which inhibits viral replication in H9 cells by 50%

[3] = system: HIV induced membrane fusion; assay: cells; format: cell-based, HIV-1LAI; details: for IC100: Human immunodeficiency virus 1, CEM-4, 24 h, read-out: Fusion Assay IC100
Procedure: as §1, with “MOLT-4” for “Cell fusions were performed as described in Matthews et al., Proc. Natl. Acad. Sci. USA, 1987, 84, 5424-5428. MOLT-4”

[4] = molecular target: T1, HIV-1 reverse transcriptase (Human immunodeficiency virus type 1 group M subtype B, UniProt P04585); assay: HIV-1 reverse transcriptase assay; format: biochemical, HIV-1 IIIB
T1 construct: virion associated HIV-1 IIIB reverse transcriptase; endogenous in cells; host or cells: HIV-1 IIIB virions lysed in Triton X-100
Procedure: Ten microliters of virion associated HIV-1 IIIB reverse transcriptase in 1% Triton X-100 was mixed with 50 microliters of a reaction cocktail containing 50 mM Tri-HCl (pH 7.8), 75 mM KCl, 2 mM dithiothreitol, 5 mM MgCl2, 5 mg/ml poly (A) [Pharmacia], 0.25 unit/ml oligo(dT)[Pharmacia]; 0.05% Nonidet P40 and 10 mCi/ml ^32 P-dTTP in the presence of various concentrations of test compound. After incubating for one hour at 37° C., 40 microliters of the reaction mixture was applied to a Schleicher & Schuell NA 45 membrane saturated with […] (0.3M NaCl, 30 mM sodium citrate, pH 7.0) in a Schleicher & Schuell Minifold over one sheet of GB003 filter paper. Each well of the minifold was washed four times with 2×SSC. Autoradiography was performed, and radioactivity was quantified with a Packard Matrix (Meriden, Conn.) 9600 direct beta counter.

[5] = system: HIV-1; assay: HIV-1 replication in PHA-stimulated PBMCs (p24 antigen ELISA); format: cell-based, HIV-1 (IIIB isolate); design: TI50: unit not given beside the values; details: for EC50: Human immunodeficiency virus 1, PBMC; for T.I. values in PBMCs compared with H9 cells: PBMCs versus H9 cells; for TI50: Table 2, PBMCs
Procedure: The T cell line, H9, and the promonocytic cell line, U937, were maintained separately in continuous culture with complete medium (RPMI 1640 with 10% fetal calf serum) at 5% CO2 and 37° C. The cell lines were used in experiments only when in the logarithmic phase of growth, whereas uninfected peripheral blood mononuclear cells (PBMCs) were first stimulated with PHA (1 μg/mL) for three days. All cell targets were incubated with HIV-1 (IIIB isolate, TCID50 10^4 IU/ml, at a multiplicity of infection of 0.01-0.01 IU/cell) for one hour at 37° C. and 5% CO2. The cell lines and PBMCs were washed thoroughly to remove unadsorbed virions and resuspended at 4×10^5 cells/ml in complete medium or complete medium with 10% v/v interleukin 2 (IL-2), respectively. One ml. aliquots were placed into wells of 24-well culture plates containing an equal volume of test compounds (diluted in the appropriate culture medium). The toxicity of each compound was assessed by determining the number of compound-exposed uninfected cells that remained after four days at 37° C. and 5% CO2. A p24 antigen ELISA assay was used to determine the level of virus released in the medium of the HIV-infected cultures. The p24 antigen assay used a HIV-1 anti-p24 specific monoclonal antibody as the capture antibody coated onto 96-well plates. Following a sample incubation period, rabbit serum containing antibodies for HIV-1 p24 was used to tag any p24 "captured: onto the microtiter well surface. Peroxidase conjugated goat anti-rabbit serum was then used to tag HIV-1 p24 specific rabbit antibodies that had complexed with captured p24. […] The cutoff for the p24 ELISA assay was 12.5 pg/ml. P24 in the culture medium was quantitated against a standard curve containing known amounts of p24. The effective (EC50) and inhibitory (IC50) concentrations for anti-HIV activity and cytotoxicity, respectively, were determined.

[6] = system: HIV-1; details: cited from earlier work
[7] = Human immunodeficiency virus 1, H9, Table 1, inhibits viral replication in H9 cells by 50%, read-out: EC50
[8] = Human immunodeficiency virus 1, Lymphocyte, acutely infected H9 lymphocytes
[9] = Table 1, H9 cells, therapeutic index
[10] = acutely infected H9 lymphocytes
[11] = Table 1, inhibit 50% of HIV-1 RT activity, read-out: HIV-RT Assay IC50
[12] = PHA-stimulated PBMCs, read-out: EC50
[13] = earlier data, H9 lymphocyte cells
[14] = earlier data, HIV-1 replication in H9 lymphocyte cells
[15] = Human immunodeficiency virus 1, Lymphocyte, Table 2, H9

| SMILES | cytotoxicity in fusion assay (footnotes d, e, f) [1] | EC50 [2, 7] [nM] | T.I. [2, 9] | IC100 [3] [µg/mL] | IC50 [4, 11] [nM] | also measured |
| --- | --- | --- | --- | --- | --- | --- |
| C=C(C)[C@@H]1CC[C@]2(C(=O)O)CC[C@]3(C)[C@H](CC[C@@H]4[C@@]5(C)CC[C@H](OC(=O)C(C)(C)CC(=O)O)C(C)(C)[C@@H]5CC[C@]43C)[C@@H]12 [Compound 2, 3-O-(2',2'-dimethylsuccinyl)betulinic acid] | d (No noticeable cytotoxicity at 100 μg/mL) | 2700 | 5.9 | 20 | > 171000 | EC50 [2, 8]: 2700 nM; T.I. [2, 10]: 5.9; inhibition of syncytia formation, compounds 2 and 3 compared ([3]; compound 3 versus compound 2): inhibited syncytia formation at the same concentration |
| CC(C)[C@@H]1CC[C@]2(C(=O)O)CC[C@]3(C)[C@H](CC[C@@H]4[C@@]5(C)CC[C@H](OC(=O)CC(C)(C)C(=O)O)C(C)(C)[C@@H]5CC[C@]43C)[C@@H]12 [Compound 8, 3-O-(3',3'-dimethylsuccinyl)-dihydrobetulinic acid] | f (Toxic at 40 μg/mL under the assay conditions) | – | 14,000-98,000 | 20 | > 170000 | EC50 [5]: 1.75 ng/mL; EC50 [5, 12]: 2.99 nM; T.I. values in PBMCs compared with H9 cells [5]: lower than those in H9 cells; TI50 [5]: 2,286; EC50 [2, 8]: < 0.017 nM; T.I. [2, 10]: more than 400,000 |
| CC(C)[C@@H]1CC[C@]2(C(=O)O)CC[C@]3(C)[C@H](CC[C@@H]4[C@@]5(C)CC[C@H](O)C(C)(C)[C@@H]5CC[C@]43C)[C@@H]12 [Compound 6, dihydrobetulinic acid, reference compound] | – | 900 | 14.0 | > 100 | – | T.I. [6, 13]: 14; EC50 ([6]; earlier data, anti-HIV activity, unit inferred): 900 nM; IC50 [4]: > 218000 nM |
| C=C(C)[C@@H]1CC[C@]2(C(=O)O)CC[C@]3(C)[C@H](CC[C@@H]4[C@@]5(C)CC[C@H](O)C(C)(C)[C@@H]5CC[C@]43C)[C@@H]12 [Compound 1, betulinic acid, reference compound] | – | 1400 | – | > 100 | > 219000 | EC50 [6, 14]: 1400 nM |
| C=C(C)[C@@H]1CC[C@]2(C(=O)O)CC[C@]3(C)[C@H](CC[C@@H]4[C@@]5(C)CC[C@H](OC(=O)CC(C)(C)C(=O)O)C(C)(C)[C@@H]5CC[C@]43C)[C@@H]12 [Compound 3, 3-O-(3',3'-dimethylsuccinyl)-betulinic acid] | d (No noticeable cytotoxicity at 100 μg/mL) | – | – | – | – | EC50 ([2]; Human immunodeficiency virus 1, Lymphocyte): < 0.017 nM |
| C=C(C)[C@@H]1CC[C@]2(C(=O)O)CC[C@]3(C)[C@H](CC[C@@H]4[C@@]5(C)CC[C@H](OC(=O)CC(C)(C)CC(=O)O)C(C)(C)[C@@H]5CC[C@]43C)[C@@H]12 [Compound 4, 3-O-(3',3'-dimethylglutaryl)-betulinic acid] | d (No noticeable cytotoxicity at 100 μg/mL) | – | – | 30 | > 167000 | – |
| CC(C)[C@@H]1CC[C@]2(C(=O)O)CC[C@]3(C)[C@H](CC[C@@H]4[C@@]5(C)CC[C@H](OC(=O)CC(C)(C)CC(=O)O)C(C)(C)[C@@H]5CC[C@]43C)[C@@H]12 [Compound 9, 3-O-(3',3'-dimethylglutaryl)-dihydrobetulinic acid] | f (Toxic at 40 μg/mL under the assay conditions) | 5.7 | 1,017.0 | 20 | > 166000 | EC50 [5]: 17.5 ng/mL; EC50 [5, 12]: 29.2 nM; T.I. values in PBMCs compared with H9 cells [5]: lower than those in H9 cells; TI50 [5]: 229 |
| CC(C)[C@@H]1CC[C@]2(C(=O)O)CC[C@]3(C)[C@H](CC[C@@H]4[C@@]5(C)CC[C@H](OC(=O)COCC(=O)O)C(C)(C)[C@@H]5CC[C@]43C)[C@@H]12 [Compound 10, 3-O-diglycolyl-dihydrobetulinic acid] | e (Toxic to the cells at 80 μg/mL in oneday fusion assay) | 5.6 | 2,344.0 | 40 | > 174000 | EC50 [2, 15]: 3.2 ng/mL; TI50 ([2]; Table 2, H9): 2,344 |
| CC(C)[C@@H]1CC[C@]2(C(=O)O)CC[C@]3(C)[C@H](CC[C@@H]4[C@@]5(C)CC[C@H](OC(=O)C(C)(C)CC(=O)O)C(C)(C)[C@@H]5CC[C@]43C)[C@@H]12 [Compound 7, 3-O-(2',2'-dimethylsuccinyl)-dihydrobetulinic acid] | – | 560 | 13.8 | – | – | EC50 [2, 8]: 560 nM; T.I. [2, 10]: 13.8 |
| C=C(C)[C@@H]1CC[C@]2(C(=O)O)CC[C@]3(C)[C@H](CC[C@@H]4[C@@]5(C)CC[C@H](OC(=O)COCC(=O)O)C(C)(C)[C@@H]5CC[C@]43C)[C@@H]12 [Compound 5, 3-O-diglycolyl-betulinic acid] | e (Toxic to the cells at 80 μg/mL in oneday fusion assay) | 10 | 1,172.0 | 40 | > 175000 | EC50 [2, 15]: 10 ng/mL; TI50 ([2]; Table 2, H9): 1,500 |
| CC1(C)Oc2ccc3ccc(=O)oc3c2[C@@H](OC(=O)[C@@]23CC[C@@](C)(C(=O)O2)C3(C)C)[C@H]1OC(=O)[C@@]12CC[C@@](C)(C(=O)O1)C2(C)C [DCK, 3',4'-di-O-(-)-camphanoyl-(+)-cis-khellactone] | – | – | – | – | – | therapeutic index (T.I.) ([6]; H9 lymphocyte cells, background): 136,719; EC50 ([6]; HIV replication in H9 lymphocyte cells, background): 0.4 nM |
| CC(=O)[C@@H]1CC[C@]2(C(=O)O)CC[C@]3(C)[C@H](CC[C@@H]4[C@@]5(C)CC[C@H](O)C(C)(C)[C@@H]5CC[C@]43C)[C@@H]12 [platanic acid] | – | – | – | – | – | T.I. [6, 13]: 14; EC50 [6, 14]: 6500 nM |
